For experiment [1], the target named is T1, Bcl-2-like protein 10 (Homo sapiens, UniProt Q9HD36).
T1 sequence (Q9HD36 whole entry): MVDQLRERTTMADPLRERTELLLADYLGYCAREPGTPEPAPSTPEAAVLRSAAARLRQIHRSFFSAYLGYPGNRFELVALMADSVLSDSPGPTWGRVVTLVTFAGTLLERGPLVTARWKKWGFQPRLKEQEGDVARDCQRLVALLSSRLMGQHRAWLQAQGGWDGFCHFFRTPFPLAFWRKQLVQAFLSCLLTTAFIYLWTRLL
Nature of the experiment: Biochemical TR3 FP assay of Bcl-B inhibitor potency, EC50 (AID 1243). The class given is functional.

Experiment [2] can be described thus: Luminescence Cell-Based Dose Response to Identify Activators of 5'UTR Stem-Loop Driven Prion Protein mRNA Translation in H4-C Neuroglioblastoma Cells. [Related pubchem assays: 1829 (Project Summary), 1814 (Primary HTS)]. The class given is functional.
Experiment [3] is described as follows: Luminescence Cell-Based Dose Response to Identify Activators of Luciferase Translation or Activity in H4-C Neuroglioblastoma Cells. [Related pubchem assays: 1829 (Project Summary), 1814 (Primary HTS)]. The experiment is classed as functional.
In experiment [4] the target is T2, RNA-binding protein pos-1 (Caenorhabditis elegans, UniProt G5EF15).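 Also: purified POS-1 fused to maltose binding protein made in E. coli; potency of compounds blocking POS-1 binding to fluorescent RNA.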
T2 sequence (G5EF15 whole entry): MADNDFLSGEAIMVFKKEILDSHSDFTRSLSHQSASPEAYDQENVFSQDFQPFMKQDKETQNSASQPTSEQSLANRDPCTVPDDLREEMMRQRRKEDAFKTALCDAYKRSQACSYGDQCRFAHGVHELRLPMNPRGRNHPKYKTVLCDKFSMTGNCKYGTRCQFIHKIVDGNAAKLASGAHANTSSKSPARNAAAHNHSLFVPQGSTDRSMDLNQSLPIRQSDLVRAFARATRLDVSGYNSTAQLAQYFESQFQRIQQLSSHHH
Nature of the experiment: inhibitors of POS-1/mex-3 RNA binding, dose response, biochemical, fluorescence polarization (AID 1964). (In general: Fluorescence polarisation rises when a labelled molecule tumbles more slowly, as on binding a larger partner.)

Experiment [5] can be described thus: Luminescence Cell-Based Dose Response HTS to Identify Activators of Luciferase Translation or Activity in H4 […] Cells. [Related pubchem assays: 1829 (Project Summary), 1814 (Primary HTS)]. The class given is functional.
Experiment [6] deals with T3, Zinc finger protein mex-5 (Caenorhabditis elegans, UniProt Q9XUB2).
T3 sequence (Q9XUB2 whole entry): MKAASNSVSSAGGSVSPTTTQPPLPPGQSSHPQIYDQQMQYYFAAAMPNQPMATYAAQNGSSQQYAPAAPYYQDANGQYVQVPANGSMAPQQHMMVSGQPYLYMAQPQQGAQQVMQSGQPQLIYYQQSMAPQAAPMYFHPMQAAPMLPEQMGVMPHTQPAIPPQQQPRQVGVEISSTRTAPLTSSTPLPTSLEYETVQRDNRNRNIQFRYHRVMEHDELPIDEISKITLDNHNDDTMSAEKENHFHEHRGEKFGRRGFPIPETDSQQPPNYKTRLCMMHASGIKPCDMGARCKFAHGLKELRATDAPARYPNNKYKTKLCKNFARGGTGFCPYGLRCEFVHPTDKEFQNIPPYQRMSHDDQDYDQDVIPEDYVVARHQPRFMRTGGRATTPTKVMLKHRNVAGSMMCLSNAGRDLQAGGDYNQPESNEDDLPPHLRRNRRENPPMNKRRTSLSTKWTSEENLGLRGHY
As to the kind of experiment: MEX-5/TCR-2 RNA interaction inhibitors, dose response, biochemical, C. elegans, fluorescence polarization (AID 1960).

The target of experiment [7] is Protein-tyrosine kinase 2-beta (Homo sapiens, UniProt Q14289).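 Also: potency of inhibitors of PYK2 kinase phosphorylation of poly-GT substrate.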
The test system of experiment [8] is H4. Nature of the experiment: Luminescence Cell-Based Dose Response HTS to Identify Activators of 5'UTR Stem-Loop Driven Prion Protein mRNA Translation in H4 Neuroglioblastoma Cells. [Related pubchem assays: 1829 (Project Summary), 1814 (Primary HTS)]. The experiment is classed as functional. The following applies: Homo sapiens.
Experiment [9] can be described thus: Luminescence Cell-Based Dose Confirmation to Identify Activators of 5'UTR Stem-Loop Driven Alpha-Synuclein mRNA Translation in H4 Neuroglioblastoma Cells. [Related pubchem assays: 1829 (Project Summary), 1814 (Primary HTS)]. The experiment is classed as functional.
Experiment [10] deals with Estrogen receptor beta (Homo sapiens, UniProt Q92731).
Experiment [11] concerns the target Neuropeptide Y receptor type 1 (Homo sapiens, UniProt P25929). As to the kind of experiment: NPY-Y1 receptor antagonist potency, dose response, cell-based (AID 1277). The class given is functional.
Experiment [12] addresses Neuropeptide Y receptor type 2 (Homo sapiens, UniProt P49146). Nature of the experiment: NPY-Y2 antagonist potency, selectivity check, dose response, counter-screen for NPY-Y1 antagonist project, cell-based (AID 1278). The class given is functional.
The test system of experiment [13] is HeLa. Nature of the experiment: Cytotoxicity counterscreen assay for transcriptional activators of heat shock protein 70 (Hsp70). [Related pubchem assays: 1203, 1252 ]. The class given is functional. The conditions noted are these: Homo sapiens. In general terms: Counterscreens check selectivity or assay interference.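 Also: cells exposed to compound for 16 hours before readout.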
Experiment [14] deals with BJ. As to the kind of experiment: cells. The class given is functional, cell-based. The following applies: Homo sapiens.
The nature of experiment [15]: inhibitors of firefly luciferase expression or activity, dose response, H4 neuroglioma cells, luminescence (AID 1990). The experiment is classed as functional, cell-based.
The target in experiment [16] is T4, Streptokinase A (Streptococcus pyogenes serotype M1, UniProt P10520).
T4 sequence (P10520 whole entry): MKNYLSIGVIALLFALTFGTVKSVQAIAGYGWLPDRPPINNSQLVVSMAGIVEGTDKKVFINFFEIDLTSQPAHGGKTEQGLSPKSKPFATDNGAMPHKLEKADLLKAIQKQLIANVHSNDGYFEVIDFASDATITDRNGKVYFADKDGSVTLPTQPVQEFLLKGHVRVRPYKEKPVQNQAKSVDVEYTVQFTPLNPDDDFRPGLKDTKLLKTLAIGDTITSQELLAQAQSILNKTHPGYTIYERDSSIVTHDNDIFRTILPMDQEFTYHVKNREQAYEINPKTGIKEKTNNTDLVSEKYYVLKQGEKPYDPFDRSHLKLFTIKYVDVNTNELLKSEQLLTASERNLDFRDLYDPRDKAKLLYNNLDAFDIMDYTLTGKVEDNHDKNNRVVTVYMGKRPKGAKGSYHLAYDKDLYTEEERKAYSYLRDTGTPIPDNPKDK
As to the kind of experiment: S. pyogenes streptokinase expression inhibitors, potency, dose response, plasminogen activation absorbance, OD405 (AID 1914).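 Also: secreted streptokinase activity via plasminogen activation per viability signal from cell pellet.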 The experiment is classed as functional, Streptococcus pyogenes M1 GAS.

Experiment [17] is described as follows: inhibitors of SNCA 5'UTR-driven reporter translation, confirmation, H4 neuroglioma cells, luminescence (AID 1988). The class given is functional, cell-based.
Experiment [18] can be described thus: cytotoxicity toward DRD oncogenic fibroblasts, dose response, cell-based, non-viral oncogenic, luminescence (AID 1934). The experiment is classed as functional. The conditions noted are these: Homo sapiens.
Experiment [19] addresses Mothers against decapentaplegic homolog 3 (Homo sapiens, UniProt P84022). As to the kind of experiment: SMAD3 transcription factor inhibitors, dose response (AID 715). The experiment is classed as functional.
In experiment [20] the test system is BJ. As to the kind of experiment: cytotoxicity toward BJ-TERT-LT-ST fibroblasts, dose response, cell-based, RAS-independent, luminescence (AID 1935).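 Also: BJ fibroblasts immortalized with TERT plus LT and ST oncogenes.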 The class given is functional. The following applies: Homo sapiens.
The subject of experiment [21] is Streptococcus. As to the kind of experiment: Group A Streptococcus viability loss, dose response, counter-screen for streptokinase expression inhibitor project, luminescence, BacTiterGlo (AID 1915).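 Also: potency for reduction of bacterial viability or growth.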 The class given is functional, organism-based.
Experiment [22] in a line: Luminescence Cell-Based Dose Response HTS to Identify Inhibitors of 5'UTR Stem-Loop Driven Prion Protein mRNA Translation in H4 Neuroglioblastoma Cells. [Related pubchem assays: 1827 (Project Summary), 1813 (Primary HTS)]. The experiment is classed as functional.
In experiment [23] the test system is BJ. As to the kind of experiment: cytotoxicity toward Ras-transformed BJeLR fibroblasts, dose response, cell-based, alamar blue fluorescence, cherrypicked samples (AID 2631).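 Also: confirmatory dose-response assay in RAS-dependent BJ fibroblasts engineered with TERT, LT and ST, with cytotoxicity read by fluorescence.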 The experiment is classed as functional. The following applies: Homo sapiens. A general note: Resazurin is reduced to fluorescent resorufin, in cell work by metabolically active cells.
Experiment [24] has as its target T5, Estrogen receptor (Homo sapiens, UniProt P03372).
T5 sequence (P03372 whole entry): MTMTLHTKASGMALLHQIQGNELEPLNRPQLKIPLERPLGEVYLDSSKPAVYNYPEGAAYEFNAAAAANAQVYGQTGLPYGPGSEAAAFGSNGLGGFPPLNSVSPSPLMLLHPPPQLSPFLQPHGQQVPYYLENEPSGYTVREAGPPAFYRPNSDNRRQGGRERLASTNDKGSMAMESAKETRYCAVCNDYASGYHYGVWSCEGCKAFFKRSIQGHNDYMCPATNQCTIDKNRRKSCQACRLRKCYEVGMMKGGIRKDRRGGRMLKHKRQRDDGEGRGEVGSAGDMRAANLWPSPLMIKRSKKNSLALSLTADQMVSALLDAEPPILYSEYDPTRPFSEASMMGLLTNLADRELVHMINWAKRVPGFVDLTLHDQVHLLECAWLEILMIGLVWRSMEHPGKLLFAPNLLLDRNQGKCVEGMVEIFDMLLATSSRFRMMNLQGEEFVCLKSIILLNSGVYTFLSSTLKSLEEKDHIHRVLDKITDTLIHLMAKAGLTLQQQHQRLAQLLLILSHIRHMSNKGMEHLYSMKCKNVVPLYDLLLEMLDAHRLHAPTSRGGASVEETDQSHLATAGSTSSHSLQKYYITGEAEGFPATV

In experiment [25] the test system is Streptococcus sp. 'group A'. Nature of the experiment: growth inhibition of control SK(-) GAS strain, dose response, counter-screen for streptokinase expression inhibitor project, luminescence, kanamycin, BacTiterGlo, confirmation (AID 1900). The experiment is classed as functional, organism-based.

The source made the active and inactive calls. Rule as the data show it, for most assays here: actives have a measured EC50 and inactives only a lower limit.

Sequence of Estrogen receptor beta (Q92731 whole entry): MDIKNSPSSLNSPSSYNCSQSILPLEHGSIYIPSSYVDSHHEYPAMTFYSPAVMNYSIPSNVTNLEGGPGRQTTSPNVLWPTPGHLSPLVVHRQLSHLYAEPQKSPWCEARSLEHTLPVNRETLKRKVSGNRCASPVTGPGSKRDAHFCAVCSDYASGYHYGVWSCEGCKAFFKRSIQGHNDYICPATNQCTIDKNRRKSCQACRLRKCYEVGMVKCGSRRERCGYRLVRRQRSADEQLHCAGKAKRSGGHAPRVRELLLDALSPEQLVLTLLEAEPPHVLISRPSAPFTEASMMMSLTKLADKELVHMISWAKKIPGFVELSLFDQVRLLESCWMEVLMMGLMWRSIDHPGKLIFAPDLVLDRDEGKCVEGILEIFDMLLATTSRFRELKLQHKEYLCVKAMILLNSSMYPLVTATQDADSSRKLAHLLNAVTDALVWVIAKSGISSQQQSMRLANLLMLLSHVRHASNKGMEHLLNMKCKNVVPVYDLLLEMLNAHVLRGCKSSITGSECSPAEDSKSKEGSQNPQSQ
Sequence of Protein-tyrosine kinase 2-beta (Q14289 whole entry): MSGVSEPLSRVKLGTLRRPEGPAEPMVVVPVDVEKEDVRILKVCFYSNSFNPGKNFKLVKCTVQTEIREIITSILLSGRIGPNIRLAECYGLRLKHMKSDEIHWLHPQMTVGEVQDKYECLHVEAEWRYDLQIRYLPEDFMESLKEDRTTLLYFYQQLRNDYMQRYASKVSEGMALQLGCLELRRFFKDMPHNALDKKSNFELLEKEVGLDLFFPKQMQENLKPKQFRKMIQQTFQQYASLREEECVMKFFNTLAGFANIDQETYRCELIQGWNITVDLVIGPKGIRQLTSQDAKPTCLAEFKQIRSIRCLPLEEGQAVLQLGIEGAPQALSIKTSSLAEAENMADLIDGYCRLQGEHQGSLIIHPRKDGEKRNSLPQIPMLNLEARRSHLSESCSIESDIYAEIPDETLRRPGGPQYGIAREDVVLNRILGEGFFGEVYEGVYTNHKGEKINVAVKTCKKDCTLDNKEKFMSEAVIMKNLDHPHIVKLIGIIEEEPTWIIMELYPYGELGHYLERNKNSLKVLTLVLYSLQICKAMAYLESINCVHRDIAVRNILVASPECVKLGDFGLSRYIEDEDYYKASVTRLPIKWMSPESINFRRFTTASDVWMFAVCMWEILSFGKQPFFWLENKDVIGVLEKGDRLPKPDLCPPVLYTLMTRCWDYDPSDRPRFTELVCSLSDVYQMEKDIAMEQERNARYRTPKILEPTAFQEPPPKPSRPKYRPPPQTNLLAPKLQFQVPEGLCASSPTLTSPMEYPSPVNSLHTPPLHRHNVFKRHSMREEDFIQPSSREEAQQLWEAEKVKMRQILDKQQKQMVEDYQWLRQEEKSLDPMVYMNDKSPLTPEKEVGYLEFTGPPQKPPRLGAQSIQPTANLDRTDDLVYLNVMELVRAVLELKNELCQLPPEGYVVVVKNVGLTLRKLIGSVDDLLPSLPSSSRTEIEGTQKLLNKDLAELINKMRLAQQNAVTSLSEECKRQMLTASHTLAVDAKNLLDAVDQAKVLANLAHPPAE
Sequence of Mothers against decapentaplegic homolog 3 (P84022 whole entry): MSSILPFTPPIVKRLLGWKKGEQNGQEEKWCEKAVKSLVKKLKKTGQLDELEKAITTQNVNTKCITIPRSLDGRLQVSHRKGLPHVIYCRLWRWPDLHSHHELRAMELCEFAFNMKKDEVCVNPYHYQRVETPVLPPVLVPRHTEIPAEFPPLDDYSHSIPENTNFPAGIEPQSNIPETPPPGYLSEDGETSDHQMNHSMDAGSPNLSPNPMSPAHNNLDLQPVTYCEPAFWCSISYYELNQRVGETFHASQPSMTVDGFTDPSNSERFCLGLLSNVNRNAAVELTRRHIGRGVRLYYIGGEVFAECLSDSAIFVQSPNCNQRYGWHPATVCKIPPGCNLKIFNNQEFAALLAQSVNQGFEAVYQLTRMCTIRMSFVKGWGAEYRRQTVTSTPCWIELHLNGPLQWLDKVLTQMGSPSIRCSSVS
Sequence of Neuropeptide Y receptor type 2 (P49146 whole entry): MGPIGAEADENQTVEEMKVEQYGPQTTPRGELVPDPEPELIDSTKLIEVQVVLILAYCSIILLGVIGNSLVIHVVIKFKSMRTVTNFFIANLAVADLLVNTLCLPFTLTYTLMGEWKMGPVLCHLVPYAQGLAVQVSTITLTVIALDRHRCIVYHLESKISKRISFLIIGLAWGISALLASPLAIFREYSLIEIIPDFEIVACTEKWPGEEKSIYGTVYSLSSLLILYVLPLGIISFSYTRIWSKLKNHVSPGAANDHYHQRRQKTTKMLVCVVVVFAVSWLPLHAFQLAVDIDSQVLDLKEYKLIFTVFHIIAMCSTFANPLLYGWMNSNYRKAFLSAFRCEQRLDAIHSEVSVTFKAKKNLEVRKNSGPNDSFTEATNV
Sequence of Neuropeptide Y receptor type 1 (P25929 whole entry): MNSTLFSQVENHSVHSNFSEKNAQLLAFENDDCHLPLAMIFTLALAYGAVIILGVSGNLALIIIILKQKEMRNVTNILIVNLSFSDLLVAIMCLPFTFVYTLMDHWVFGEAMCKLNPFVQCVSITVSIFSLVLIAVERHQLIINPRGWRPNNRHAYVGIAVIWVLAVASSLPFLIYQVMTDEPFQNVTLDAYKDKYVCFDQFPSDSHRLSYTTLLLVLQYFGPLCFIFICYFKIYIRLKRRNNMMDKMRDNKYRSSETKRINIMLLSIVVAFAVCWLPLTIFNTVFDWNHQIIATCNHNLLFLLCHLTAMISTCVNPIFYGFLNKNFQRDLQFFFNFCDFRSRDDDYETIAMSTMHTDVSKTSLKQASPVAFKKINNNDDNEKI

The term EC50 denotes the concentration giving half of the maximal effect. As for `O=C1C=CC(=O)C(/C(=C/NCc2ccccc2)[N+](=O)[O-])=C1`, the EC50 in experiment [1] was 5.7 µM (active).

Usually IC50 stands for the concentration needed to halve the response being measured. Consider `CCc1c(C)nc(SCC(=O)c2cccs2)c(C#N)c1C`, for which the 50% effective concentration (EC50) in [2] was 0.332 µM (active); in experiment [3] it was 0.302 µM (active); in [4], 11.5 µM (inconclusive); in experiment [5] it was < 0.1 µM (inconclusive); in experiment [6] it was 36.7 µM (inconclusive); in experiment [8] it was 0.149 µM (active). In addition, the EC50 in experiment [9] is 0.552 µM (active). In addition, the IC50 in [7] is reported as > 69.5 µM (not active); in experiment [10] it was > 50 µM (not active).

`Cc1nn(-c2ccccc2)c2sc(C(=O)O)cc12`: the IC50 in [11] and in [12] was > 35 µM (not active) in each case.

Usually CC50 stands for the concentration at which the toxic effect on the cells reaches its halfway point. Read a high CC50 as lower toxicity to the cells. Regarding `Cn1c(CCN2CCOCC2)nc2cc(NC(=O)COc3ccc(Cl)cc3)ccc21`, the CC50 in [13] is > 99 µM (not active).

Consider `CCOC(=O)c1c2c(n(C)c1COC)C(=O)C(=O)c1ccc(Br)cc1-2`, for which the EC50 in experiment [14] is 3.08 µM (active); in [15], 4.87 µM (active); in experiment [16], > 150 µM (not active); in [17], 1.44 µM (active); in experiment [18] it was 2.36 µM (active); in [20], 1.08 µM (inconclusive). Also, the concentration for a half-maximal effect (EC50) in [21] was 24.3 µM (active); in experiment [22] it was 5.16 µM (active); in experiment [23], 0.562 µM (active); in experiment [25] it was 1.13 µM (active). Besides, the IC50 was 0.771 µM (active) in [19] and 8.87 µM (active) in experiment [24].

(Values after ChEMBL document CHEMBL1201862, “PubChem BioAssay data set” (2004).)
